Source: patent US20060084704A1, “Methods and compositions for enhancing degradation of nuclear receptor transcription factors and uses thereof” (priority 2004, published 2006)

Key:
LNCaP cells = assay: LNCaP growth assay (cell count); assay type: cell-based, human
Procedure: LNCaP cells express an endogenous mutant AR that is found in prostate cancer patients. This clinically relevant cell model was used to study JC9's effect in suppressing prostate cancer cell growth. Cells were plated at a density of 6.3×10^4 cells/well in 6-well tissue culture dishes. Two days later, the complete medium was aspired and 10% charcoal/dextran-treated (hormone depleted) serum-containing medium was added. Test compounds, JC9 and hydroxyflutamide (HF) were then added to the medium at a final concentration of 5 μM with or without 1 nM of DHT. For vehicle control, the same amount of DMSO was added. For the subsequent 5 days, the medium was aspired once per day, and fresh medium containing test compounds and/or DHT was added. At designated times, a portion of cells was harvested by trypsinization, and cell count was performed using a hemacytometer.

[1] = tested on: testosterone-induced hair growth suppression; assay: Androgen-induced alopecia model, hair re-growth in shaved mice; assay type: in vivo, C57BL/6J mice; settings: topical testosterone 1% in the morning, control solution in the afternoon, 20 days
Procedure: C57BL/6J mice were used in this animal model for hair loss and regrowth (Uno et al. (1990) J. Cutaneous Aging & Cosm. Derm., 1: 193, which is incorporated by reference in its entirety herein). Six-week-old male mice (6 to 7 animals per group) were shaved with an electric clipper, and then treated with a hair-removal cream for 1 to 2 minutes. […] One day after hair removal, a first group of animals each received 100 microliters of a 1% testosterone solution in ethanol, applied topically to the shaved area, once each morning for twenty consecutive days. A second group of animals each received 100 microliters of vehicle (ethanol) alone, applied topically to the shaved area, once each morning for twenty consecutive days. The first group of mice (testosterone-treated) were divided further into a control group and a treatment group. Also beginning one day after hair removal, each mouse in the control group received 100 microliters of a control solution (60% ethanol, 20% propylene glycol, and 20% water) and each mouse in the treatment group received 100 microliters of the test compound, JC9 (0.02% in the same 60% ethanol, 20% propylene glycol, and 20% water solution), applied topically to the shaved area, once each afternoon for twenty consecutive days. Hair re-growth in the shaved areas was observed and photographed at 12, 15, 18, 21, and 24 days after beginning of the topical treatments.

## C[C@]12CCC(=O)C[C@@H]1CC[C@@H]1[C@@H]2CC[C@]2(C)[C@@H](O)CC[C@@H]12 [DHT, dihydrotestosterone]
LNCaP cells; 1 nM DHT, 4-5 days
  LNCaP cell growth with DHT alone: up-regulated LNCaP cell growth

## CC(C)(O)C(=O)Nc1ccc([N+](=O)[O-])c(C(F)(F)F)c1 [HF, hydroxyflutamide]
LNCaP cells; 5 μM, with 1 nM DHT, 5 days
  cell growth (cell number) in the presence of DHT: moderate activity to repress DHT-stimulated cell growth
LNCaP cells; 5 μM, without DHT, 5-day incubation
  cell growth (cell number): dramatic growth suppressing effect, however, was not detected

## C[C@]12CC[C@H]3[C@@H](CCC4=CC(=O)CC[C@@]43C)[C@@H]1CC[C@@H]2O [testosterone, reference compound]
[1]
  hair re-growth in shaved areas: little or no re-growth of hair
